According to patent publication US4033721A, “Analysis of gentian violet residue in tissue” (priority 1976, dated 1977):
Several values for one entry are separate records, joined by “and”; a condition that tells them apart may be missing. Equal entries are not always repeated.

Assay: Residual 14C-gentian violet in tissues of cockerels after repeated oral administration (Example 26)
Conditions: for 14C dpm/Organ / 14C dpm/gram / ug/gram (ppm) in organ: individual bird; for Mean tissue residue: oral; for Mean tissue residue, mean of two values without the sport: 2.5 mg/kg

CN(C)c1ccc(C(=C2C=CC(=[N+](C)C)C=C2)c2ccc(N(C)C)cc2)cc1 [^14 C-gentian violet]
Residue 72 hrs. post-dose (breast muscle): 0.012 ppm | Residue 72 hrs. post-dose (gizzard muscle): 0.002 ppm | Residue 72 hrs. post-dose (heart muscle): 0.007 ppm | 14C dpm/Organ (kidneys, 1X dose, 4 hours): 2,863 dpm/Organ and 4,271 dpm/Organ and 2,272 dpm/Organ | 14C dpm/gram (kidneys, 1X dose, 4 hours): 1,184 dpm/gram and 1,634 dpm/gram and 1,269 dpm/gram | ug/gram (ppm) in organ (kidneys, 1X dose, 4 hours, 240 min): 0.089 ppm and 0.123 ppm and 0.095 ppm | 14C dpm/Organ (kidneys, 1X dose, 12 hours): 1,746 dpm/Organ and 1,696 dpm/Organ and 3,452 dpm/Organ | 14C dpm/gram (kidneys, 1X dose, 12 hours): 820 dpm/gram and 764 dpm/gram and 1,561 dpm/gram | ug/gram (ppm) in organ (kidneys, 1X dose, 12 hours, 720 min): 0.062 ppm and 0.057 ppm and 0.117 ppm | 14C dpm/Organ (kidneys, 1X dose, 24 hours): 2,705 dpm/Organ and 1,481 dpm/Organ and 1,644 dpm/Organ | 14C dpm/gram (kidneys, 1X dose, 24 hours): 1,463 dpm/gram and 639 dpm/gram and 561 dpm/gram | ug/gram (ppm) in organ (kidneys, 1X dose, 24 hours, 1440 min): 0.110 ppm and 0.048 ppm and 0.042 ppm | 14C dpm/Organ (kidneys, 1X dose, 48 hours): 1,186 dpm/Organ and 863 dpm/Organ | 14C dpm/gram (kidneys, 1X dose, 48 hours): 511 dpm/gram and 527 dpm/gram | ug/gram (ppm) in organ (kidneys, 1X dose, 48 hours, 2880 min): 0.038 ppm and 0.040 ppm | 14C dpm/Organ (kidneys, 1X dose, 72 hours): 972 dpm/Organ and 759 dpm/Organ | 14C dpm/gram (kidneys, 1X dose, 72 hours): 333 dpm/gram and 289 dpm/gram | ug/gram (ppm) in organ (kidneys, 1X dose, 72 hours, 4320 min): 0.025 ppm and 0.022 ppm | 14C dpm/Organ (kidneys, 5X dose, 4 hours): 11,116 dpm/Organ and 9,227 dpm/Organ and 8.867 dpm/Organ and 12,505 dpm/Organ | 14C dpm/gram (kidneys, 5X dose, 4 hours): 9,183 dpm/gram and 4,798 dpm/gram and 4,729 dpm/gram and 6,658 dpm/gram | ug/gram (ppm) in organ (kidneys, 5X dose, 4 hours, 240 min): 0.691 ppm and 0.361 ppm and 0.356 ppm and 0.501 ppm | 14C dpm/Organ (kidneys, 5X dose, 12 hours): 11,939 dpm/Organ and 6,796 dpm/Organ and 6,537 dpm/Organ and 5,712 dpm/Organ and 7,815 dpm/Organ | 14C dpm/gram (kidneys, 5X dose, 12 hours): 5,250 dpm/gram and 3,258 dpm/gram and 3,060 dpm/gram and 2,334 dpm/gram and 3,855 dpm/gram | ug/gram (ppm) in organ (kidneys, 5X dose, 12 hours, 720 min): 0.395 ppm and 0.245 ppm and 0.230 ppm and 0.176 ppm and 0.290 ppm | 14C dpm/Organ (kidneys, 5X dose, 24 hours): 6,185 dpm/Organ and 6,443 dpm/Organ and 7,315 dpm/Organ and 3,623 dpm/Organ | 14C dpm/gram (kidneys, 5X dose, 24 hours): 3,002 dpm/gram and 2,961 dpm/gram and 3,751 dpm/gram and 1,463 dpm/gram | ug/gram (ppm) in organ (kidneys, 5X dose, 24 hours, 1440 min): 0.226 ppm and 0.223 ppm and 0.282 ppm and 0.110 ppm | 14C dpm/Organ (kidneys, 5X dose, 48 hours): 2,197 dpm/Organ and 3,750 dpm/Organ and 2,882 dpm/Organ | 14C dpm/gram (kidneys, 5X dose, 48 hours): 982 dpm/gram and 1,647 dpm/gram and 1,508 dpm/gram | ug/gram (ppm) in organ (kidneys, 5X dose, 48 hours, 2880 min): 0.074 ppm and 0.124 ppm and 0.113 ppm | 14C dpm/Organ (kidneys, 5X dose, 72 hours): 4,998 dpm/Organ and 1,843 dpm/Organ and 1,792 dpm/Organ | 14C dpm/gram (kidneys, 5X dose, 72 hours): 4,044 dpm/gram and 844 dpm/gram and 1,042 dpm/gram | ug/gram (ppm) in organ (kidneys, 5X dose, 72 hours, 4320 min): 0.304 ppm and 0.067 ppm and 0.078 ppm | 14C dpm/Organ (liver, 1X dose, 4 hours): 21,804 dpm/Organ and 36,280 dpm/Organ and 16,323 dpm/Organ | 14C dpm/gram (liver, 1X dose, 4 hours): 3,084 dpm/gram and 5,753 dpm/gram and 2,493 dpm/gram | ug/gram (ppm) in organ (liver, 1X dose, 4 hours, 240 min): 0.232 ppm and 0.433 ppm and 0.188 ppm | 14C dpm/Organ (liver, 1X dose, 12 hours): 5,477 dpm/Organ and 5,889 dpm/Organ and 19,188 dpm/Organ | 14C dpm/gram (liver, 1X dose, 12 hours): 996 dpm/gram and 927 dpm/gram and 2,857 dpm/gram | ug/gram (ppm) in organ (liver, 1X dose, 12 hours, 720 min): 0.075 ppm and 0.070 ppm and 0.215 ppm | 14C dpm/Organ (liver, 1X dose, 24 hours): 14,586 dpm/Organ and 5,165 dpm/Organ and 7,248 dpm/Organ | 14C dpm/gram (liver, 1X dose, 24 hours): 2,890 dpm/gram and 830 dpm/gram and 851 dpm/gram | ug/gram (ppm) in organ (liver, 1X dose, 24 hours, 1440 min): 0.217 ppm and 0.062 ppm and 0.064 ppm | 14C dpm/Organ (liver, 1X dose, 48 hours): 8,396 dpm/Organ and 6,073 dpm/Organ | 14C dpm/gram (liver, 1X dose, 48 hours): 1,419 dpm/gram and 1,292 dpm/gram | ug/gram (ppm) in organ (liver, 1X dose, 48 hours, 2880 min): 0.107 ppm and 0.097 ppm | 14C dpm/Organ (liver, 1X dose, 72 hours): 7,261 dpm/Organ and 3,744 dpm/Organ | 14C dpm/gram (liver, 1X dose, 72 hours): 546 dpm/gram and 361 dpm/gram | ug/gram (ppm) in organ (liver, 1X dose, 72 hours, 4320 min): 0.041 ppm and 0.027 ppm | 14C dpm/Organ (liver, 5X dose, 4 hours): 44,618 dpm/Organ and 50,607 dpm/Organ and 42,844 dpm/Organ and 46,652 dpm/Organ | 14C dpm/gram (liver, 5X dose, 4 hours): 13,878 dpm/gram and 9,859 dpm/gram and 8,038 dpm/gram and 9,651 dpm/gram | ug/gram (ppm) in organ (liver, 5X dose, 4 hours, 240 min): 1.044 ppm and 0.742 ppm and 0.605 ppm and 0.726 ppm | 14C dpm/Organ (liver, 5X dose, 12 hours): 66,438 dpm/Organ and 24,948 dpm/Organ and 17,753 dpm/Organ and 26,299 dpm/Organ and 68,033 dpm/Organ | 14C dpm/gram (liver, 5X dose, 12 hours): 11,801 dpm/gram and 4,135 dpm/gram and 3,201 dpm/gram and 3,772 dpm/gram and 10,291 dpm/gram | ug/gram (ppm) in organ (liver, 5X dose, 12 hours, 720 min): 0.888 ppm and 0.311 ppm and 0.241 ppm and 0.284 ppm and 0.774 ppm | 14C dpm/Organ (liver, 5X dose, 24 hours): 60,300 dpm/Organ and 67,384 dpm/Organ and 68,033 dpm/Organ and 20,674 dpm/Organ | 14C dpm/gram (liver, 5X dose, 24 hours): 9.588 dpm/gram and 10,942 dpm/gram and 12,714 dpm/gram and 2,845 dpm/gram | ug/gram (ppm) in organ (liver, 5X dose, 24 hours, 1440 min): 0.721 ppm and 0.823 ppm and 0.957 ppm and 0.215 ppm | 14C dpm/Organ (liver, 5X dose, 48 hours): 15,334 dpm/Organ and 27,176 dpm/Organ and 13,617 dpm/Organ | 14C dpm/gram (liver, 5X dose, 48 hours): 2,649 dpm/gram and 5,220 dpm/gram and 3,102 dpm/gram | ug/gram (ppm) in organ (liver, 5X dose, 48 hours, 2880 min): 0.199 ppm and 0.393 ppm and 0.233 ppm | 14C dpm/Organ (liver, 5X dose, 72 hours): 45,587 dpm/Organ and 10,991 dpm/Organ and 13,245 dpm/Organ | 14C dpm/gram (liver, 5X dose, 72 hours): 21,927 dpm/gram and 2,447 dpm/gram and 2,991 dpm/gram | ug/gram (ppm) in organ (liver, 5X dose, 72 hours, 4320 min): 1.650 ppm and 0.184 ppm and 0.225 ppm | Residue 72 hrs. post-dose (kidney): 0.024 ppm | Elimination Rate Constant (Ke) (kidneys, 1X dose): -0.0209 h⁻¹ | Mean tissue residue (kidneys, 1X dose (0.5 mg/kg), 4 hrs. post-dose): 0.102 ppm | Mean tissue residue (kidneys, 1X dose (0.5 mg/kg), 12 hrs. post-dose): 0.079 ppm | Mean tissue residue (kidneys, 1X dose (0.5 mg/kg), 24 hrs. post-dose): 0.067 ppm | Mean tissue residue (kidneys, 1X dose (0.5 mg/kg), 48 hrs. post-dose): 0.039 ppm | Mean tissue residue (kidneys, 1X dose (0.5 mg/kg), 72 hrs. post-dose): 0.024 ppm | Elimination Rate Constant (Ke) (kidneys, 5X dose): -0.0262 h⁻¹ | Half-Life (t1/2) (kidneys, 5X dose): 26.7 h | Mean tissue residue (kidneys, 5X dose (2.5 mg/kg), 4 hrs. post-dose): 0.477 ppm | Mean tissue residue (kidneys, 5X dose (2.5 mg/kg), 12 hrs. post-dose): 0.267 ppm | Mean tissue residue (kidneys, 5X dose (2.5 mg/kg), 24 hrs. post-dose): 0.210 ppm | Mean tissue residue (kidneys, 5X dose (2.5 mg/kg), 48 hrs. post-dose): 0.104 ppm | Mean tissue residue (kidneys, 5X dose (2.5 mg/kg), 72 hrs. post-dose, includes a sport, high value among three): 0.150 ppm | Mean tissue residue, mean of two values without the sport (kidneys, 5X dose, 72 hrs. post-dose): 0.073 ppm | Residue 72 hrs. post-dose (liver): 0.034 ppm | Mean tissue residue (liver, 1X dose (0.5 mg/kg), 4 hrs. post-dose): 0.284 ppm | Mean tissue residue (liver, 1X dose (0.5 mg/kg), 12 hrs. post-dose): 0.120 ppm | Mean tissue residue (liver, 1X dose (0.5 mg/kg), 24 hrs. post-dose): 0.114 ppm | Mean tissue residue (liver, 1X dose (0.5 mg/kg), 48 hrs. post-dose): 0.102 ppm | Mean tissue residue (liver, 1X dose (0.5 mg/kg), 72 hrs. post-dose): 0.034 ppm | Mean tissue residue (liver, 5X dose (2.5 mg/kg), 4 hrs. post-dose): 0.779 ppm | Mean tissue residue (liver, 5X dose (2.5 mg/kg), 12 hrs. post-dose): 0.500 ppm | Mean tissue residue (liver, 5X dose (2.5 mg/kg), 24 hrs. post-dose): 0.679 ppm | Mean tissue residue (liver, 5X dose (2.5 mg/kg), 48 hrs. post-dose): 0.275 ppm | Mean tissue residue (liver, 5X dose (2.5 mg/kg), 72 hrs. post-dose, includes a sport, high value among three): 0.686 ppm | Mean tissue residue, mean of two values without the sport (liver, 5X dose, 72 hrs. post-dose): 0.205 ppm | Elimination Rate Constant (Ke) (livers, 1X dose): -0.0247 h⁻¹ | Half-Life (t1/2) (livers, 1X dose): 28.0 h | Elimination Rate Constant (Ke) (livers, 5X dose): -0.0193 h⁻¹ | Half-Life (t1/2) (livers, 5X dose): 35.9 h | Residue 72 hrs. post-dose (skin/fat): 0.016 ppm | Residue 72 hrs. post-dose (thigh muscle): 0.012 ppm
